From patent US20230330080A1, “THERAPEUTIC TREATMENT USING PROTEIN KINASE C (PKC) INHIBITORS AND CYTOTOXIC AGENTS” (Cambridge Enterprise Limited, priority 2020, published 2023)

Key:
Format in all cases: cell-based, human
[1] = test system: CLL patient cells co-cultured with wild-type bone marrow derived stroma cells; assay: 1-hour PKC inhibitor pre-treatment with washout before cytotoxic agent; viability of CLL/stroma co-cultures by Annexin-V-FITC and DAPI flow cytometry
Procedure: (§1) Approximately 20,000 wild-type bone marrow derived stroma cells were seeded into tissue culture wells and subsequently co-cultured with approximately 200,000 CLL patient cells. 24 hours thereafter, co-cultures were treated with 5 μM Enzastaurin for 1 hour at the indicated time-points prior to treatment with Fludarabine or Venetoclax (FIGS. 1A and 2A). Equivalent PKC-β-inhibitor exposure was maintained through removal and subsequent washout of Enzastaurin-treated co-cultures. Co-cultures were centrifuged at 500 g for 5 minutes, prior to removal of Enzastaurin containing media. Washout with cell culture media, was followed by an additional centrifugation at 500 g for 5 minutes, and the replacement of washout media with fresh media. Respective co-cultures were subsequently treated with either Fludarabine (2.5 μM) or Venetoclax (2.5 nM) for 24 hours. Cells were subsequently evaluated for viability using Annexin-V-FITC and DAPI, or 4′,6-diamidino-2-phenylindole, staining on a flow cytometer (FIGS. 1B and 2B).
as §1, with “Bendamustine (FIG. 7).” for “Fludarabine or Venetoclax (FIGS. 1A and 2A).”, “Bendamustine (15” for “either Fludarabine (2.5”, “μM)” for “μM) or Venetoclax (2.5 nM)”, “cytometer.” for “cytometer (FIGS. 1B and 2B).”
Approximately 20,000 wild-type bone marrow derived stroma cells were seeded into tissue culture wells and subsequently co-cultured with approximately 200,000 CLL patient cells. 24 hours thereafter, co-cultures were treated with 5 μM Ruboxistaurin for 1 hour at the indicated time-points prior to treatment with Venetoclax (FIG. 10A). Equivalent PKC-β-inhibitor exposure was maintained through removal and subsequent washout of Ruboxistaurin-treated co-cultures. Co-cultures were centrifuged at 500 g for 5 minutes, prior to removal of Ruboxistaurin containing media. Washout with cell culture media, was followed by an additional centrifugation at 500 g for 5 minutes, and the replacement of washout media with fresh media. Respective co-cultures were subsequently treated with Venetoclax (5 nM) for 24 hours. Cells were subsequently evaluated for viability using Annexin-V-FITC and DAPI, or 4′,6-diamidino-2-phenylindole, staining on a flow cytometer (FIG. 10B).

[2] = test system: CLL patient cells co-cultured with wild-type bone marrow derived stroma cells; assay: Synergism of PKC-β inhibitors with Venetoclax in CLL/stroma co-culture (Compusyn, Bliss Independence model); conditions: PKC inhibitor 1.25, 2.5, 5 μM prior to Venetoclax 5, 10, 20 nM for 24 hours
Procedure: Heatmaps reflect assessment values noted for respective compound combinations, with error (*) indicated below. A scale of 50 to −50, is applied to values, with 50 representing maximal synergism and −50 being maximal antagonism. Non-significant values are by default coloured as neither synergistic nor antagonistic;
Approximately 20,000 wild-type bone marrow derived stroma cells were seeded into tissue culture wells and subsequently co-cultured with approximately 200,000 CLL patient cells. 24 hours thereafter, co-cultures were treated with Enzastaurin, Sotrastaurin or Midostaurin (1.25 μM, 2.5 μM, 5 μM) prior to treatment with Venetoclax. Co-cultures were subsequently treated with Venetoclax (5 nM, 10 nM, 20 nM) for 24 hours. Cells were subsequently evaluated for viability using flow cytometric analysis. Synergism was calculated using Compusyn Software (CRUK), within the Bliss Independence model (FIG. 5).

[3] = test system: CLL patient cells co-cultured with wild-type bone marrow derived stroma cells; assay: Continuous PKC inhibitor exposure begun before cytotoxic agent; viability of CLL/stroma co-cultures by Annexin-V-FITC and DAPI flow cytometry
Procedure: (§2) Approximately 20,000 wild-type bone marrow derived stroma cells were seeded into tissue culture wells and subsequently co-cultured with approximately 200,000 CLL patient cells. 24 hours thereafter, co-cultures were treated with 5 μM Enzastaurin at the indicated time-points prior to treatment with Venetoclax (FIG. 3A). Co-cultures were subsequently treated with Venetoclax (2.5 nM) for 24 hours. Cells were subsequently evaluated for viability using Annexin-V-FITC and DAPI staining on a flow cytometer (FIG. 3B).
as §2, with “Bendamustine” for “Venetoclax”, “8).” for “3A).”, “Bendamustine (15 μM)” for “Venetoclax (2.5 nM)”, “8).” for “3B).”
as §2, with “1” for “5”, “Midostaurin” for “Enzastaurin”, “Bendamustine” for “Venetoclax”, “8).” for “3A).”, “Bendamustine (15 μM)” for “Venetoclax (2.5 nM)”, “9).” for “3B).”

[4] = 5 μM Enzastaurin for 1 hour, then Bendamustine 15 μM for 24 hours
[5] = 5 μM Enzastaurin for 1 hour, then Fludarabine 2.5 μM for 24 hours
[6] = 5 μM Enzastaurin for 1 hour, then Venetoclax 2.5 nM for 24 hours
[7] = 5 μM Ruboxistaurin for 1 hour, then Venetoclax 5 nM for 24 hours

SMILES: Cn1cc(C2=C(c3cn(C4CCN(Cc5ccccn5)CC4)c4ccccc34)C(=O)NC2=O)c2ccccc21 [Enzastaurin, 3-(1-methylindol-3-yl)-4-[1-[1-(pyridin-2-ylmethyl)piperidin-4-yl]indol-3-yl]pyrrole-2,5-dione]
- pre-dosing timepoints showing increased efficacy of Bendamustine [1, 4]: 2 to 6 h
- pre-dosing timepoints with largest effect on efficacy of Bendamustine [1, 4]: 3 to 6 h
- pre-dosing time points showing increased efficacy of Fludarabine [1, 5]: 2 to 6 h
- pre-dosing time points with largest effect on efficacy of Fludarabine [1, 5]: 3 to 6 h
- pre-dosing time points showing increased efficacy of Venetoclax [1, 6]: 2 to 6 h
- pre-dosing time points with largest effect on efficacy of Venetoclax [1, 6]: 3 to 6 h
- combinatorial treatment effect with Venetoclax (synergism, Bliss model) [2]: synergistic effects
- pre-dosing time giving greatest efficacy of Bendamustine ([3]; continuous 5 μM Enzastaurin beginning 1, 2, 3, 4, 6, 8 hours prior to Bendamustine 15 μM for 24 hours): 3 to 6 h
- pre-dosing time giving greatest efficacy of Venetoclax ([3]; continuous 5 μM Enzastaurin beginning 1, 2, 3, 4, 6, 12 hours prior to Venetoclax 2.5 nM for 24 hours): 3 to 6 h

SMILES: CN1CCN(c2nc(C3=C(c4c[nH]c5ccccc45)C(O)=NC3=O)c3ccccc3n2)CC1 [Sotrastaurin, 5-hydroxy-4-(1H-indol-3-yl)-3-[2-(4-methylpiperazin-1-yl)quinazolin-4-yl]-2H-pyrrol-2-one]
- combinatorial treatment effect with Venetoclax (synergism, Bliss model) [2]: synergistic effects

SMILES: CO[C@@H]1[C@H](N(C)C(=O)c2ccccc2)C[C@H]2O[C@]1(C)n1c3ccccc3c3c4c(c5c6ccccc6n2c5c31)C(=O)NC4 [Midostaurin, N-((5R,7R,8R,9S)-8-methoxy-9-methyl-16-oxo-6,7,8,9,15,16-hexahydro-5H,14H-17-oxa-4b,9a,15-triaza-5,9-methanodibenzo[b,h]cyclonona[jkl]cyclopenta[e]-as-indacen-7-yl)-N-methylbenzamide]
- pre-dosing time giving greatest efficacy of Bendamustine ([3]; continuous 1 μM Midostaurin beginning 1, 2, 3, 4, 6, 8 hours prior to Bendamustine 15 μM for 24 hours): 3 to 8 h

SMILES: CN(C)C[C@@H]1CCn2cc(c3ccccc32)C2=C(C(=O)NC2=O)c2cn(c3ccccc23)CCO1 [Ruboxistaurin]
- pre-dosing time points showing increased efficacy of Venetoclax [1, 7]: 1 to 6 h
- pre-dosing time points with most significant effects on efficacy of Venetoclax [1, 7]: 1 to 4 h
